Assay results: patent publication US6492365B1, “Microsomal triglyceride transfer protein” (Bristol-Myers Squibb Company, priority 1992, dated 2002)
Structures can show the parent of a compound that is named as a salt.

Tests used:
[1] = test system: apoAI secretion from HepG2 cells; assay: ApoAI secretion from HepG2 cells (ELISA of culture media); assay type: cell-based, human; settings: 16-hour incubation, up to the maximum dose of 20 μM
Experimental: (§1) HepG2 cells were treated with compound A at the indicated doses for 16 hours. The concentration in the cell culture media of apoB, apoAI and HSA after the incubation period was measured with the appropriate ELISA assay and normalized to total cell protein. The data shown are expressed as a percentage of the control (DMSO only).
(§2) The human hepatoblastoma cell line, HepG2, was obtained from the American Type Culture Collection (Rockville, Md.; ATCC accession no. 8065). Cultures were maintained at 37° C. in a 5% carbon dioxide atmosphere in T-75 culture flasks with 12 mL of RPMI 1640 medium containing 10% fetal bovine serum (all cell culture media and buffers were obtained from GIBCO Life Technologies, Gaithersburg, Md.). Cells were subcultured 1:4 once a week and fed fresh medium 3 times a week.
(§3) Experiments to measure the effects of compounds A and B on protein secretion were carried out in 48-well plates. HepG2 cells were subcultured 1:2 and allowed to come to confluency at least 24 hours before drug treatment. Before commencement of drug treatment, culture medium was removed, the cells washed once with PBS and 1 mL of fresh medium was added quantitatively. […] The cells were homogenized by trituration with a 1 mL micropipettor, and protein was measured using the Coomassie reagent (Pierce Chemical Co, Rockford, Ill.) as described by the manufacturer. […]

[2] = test system: HSA secretion from HepG2 cells; assay: HSA secretion from HepG2 cells (ELISA of culture media); assay type: cell-based, human; settings: 16-hour incubation, up to the maximum dose of 20 μM
Experimental: as §1, §2, §3

## O=C1c2ccccc2CN1C1CCN(CCC(c2ccccc2)c2ccccc2)CC1 [compound A, 2-[1-(3,3-diphenylpropyl)-4-piperdinyl]-2,3-dihydro-3-oxo-1H-isoindole hydrochloride]
[1]
  secretion of apoAI: unaffected
[2]
  secretion of HSA: unaffected
